Key:
[1] = system: stage II colon cancer; test: Tumor recurrence in stage II colon cancer patients treated with 5-FU based adjuvant chemotherapy; assay type: in vivo, human
Procedure: Methods: Blood specimens from 107 patients (median age of 60 years; range: 22-86) were obtained at the University of Southern California medical facilities. All patients were diagnosed with high-risk, lymph node negative, stage II colon cancer and were uniformly treated with 5-FU based adjuvant chemotherapy. The median follow-up was 4.8 years (range: 0.3-16.8). […] Genomic DNA was extracted from peripheral blood and genotypes were determined using PCR-RFLP.

[2] = system: metastatic adenocarcinoma of the colon or rectum; settings: individuals with serum LDH more than 1.5 times the upper limit of normal; interim data; cited from earlier work

Row | Structure (SMILES) | Probability ± SE of 3-year recurrence [1] | Median time to recurrence (TTR) (95% CI) ([1]; by adjuvant therapy) | clinical benefit when PTK/ZK was added to FOLFOX4, compared to FOLFOX4 plus placebo [2]
1 | O=c1[nH]cc(F)c(=O)[nH]1 [5-FU, Fluorouracil] | 0.29 ± 0.06 | 9.4 (4.8, 16.8+) yrs | 
2 | Clc1ccc(Nc2nnc(Cc3ccncc3)c3ccccc23)cc1.O=C(O)CCC(=O)O [PTK/ZK, 1-[4-Chloroanilino]-4-[4-pyridylmethyl]phthalazine Succinate] |  |  | greater clinical benefit
